Results reported in ChEMBL document CHEMBL1201862, “PubChem BioAssay data set” (2004).
Active and inactive are the calls of the source.

What was measured:
[1] = molecular target: T1, NADPH oxidase 1 (Homo sapiens, UniProt Q9Y5S8); assay type: functional, cell-based;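 further: Cell-based assay with luminescence read-out, IC50 derived from inhibitor dose-response curves; intracellular ROS from endogenous NOX1 in intact HT29 colon cancer cells; potency of inhibitors that lower the ROS luminescence signal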
T1 sequence (Q9Y5S8 whole entry): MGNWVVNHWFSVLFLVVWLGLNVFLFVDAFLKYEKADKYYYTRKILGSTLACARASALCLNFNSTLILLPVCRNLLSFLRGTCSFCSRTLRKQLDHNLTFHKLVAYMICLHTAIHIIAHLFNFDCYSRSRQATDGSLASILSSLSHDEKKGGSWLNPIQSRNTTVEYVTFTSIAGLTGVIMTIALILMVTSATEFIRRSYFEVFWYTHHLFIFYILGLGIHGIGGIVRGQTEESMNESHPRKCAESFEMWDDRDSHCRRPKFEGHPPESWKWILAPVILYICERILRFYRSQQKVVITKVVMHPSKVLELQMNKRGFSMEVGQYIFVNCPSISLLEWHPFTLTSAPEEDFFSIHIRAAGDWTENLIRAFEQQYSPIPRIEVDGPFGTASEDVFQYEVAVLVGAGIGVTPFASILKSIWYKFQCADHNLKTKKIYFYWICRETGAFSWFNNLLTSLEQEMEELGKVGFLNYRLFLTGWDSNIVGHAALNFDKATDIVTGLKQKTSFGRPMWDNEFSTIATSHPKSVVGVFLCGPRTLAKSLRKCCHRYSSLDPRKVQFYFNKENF

[2] = molecular target: T1, NADPH oxidase 1; experiment: ROS production inhibition in HEK293 cells, late-stage follow-up, counter-screen for NOX1 inhibitor project, cell-based, IC50, set 2 (AID 435002); assay type: functional
[3] = molecular target: NADPH oxidase 3 (Homo sapiens, UniProt Q9HBY0); experiment: PubChem AID 435013
[4] = molecular target: NADPH oxidase 2 (Homo sapiens, UniProt P04839); experiment: PubChem AID 435013
[5] = test system: BJ; experiment: cytotoxicity toward BJ-TERT fibroblasts, dose response, cell-based, RAS-independent, luminescence (AID 1933); assay type: functional; conditions: Homo sapiens
[6] = molecular target: T2, Heat shock factor protein 1 (Mus musculus, UniProt P38532); experiment: inhibition of MG132-induced HSE-luciferase signal, confirmation, cell-based, NIH3T3, luminescence, dose retest (AID 2382); assay type: functional;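 further: NIH3T3 fibroblasts with HSF1-driven luciferase reporter stressed by proteasome inhibitor MG132; luminescence from HSF1-driven luciferase expression after 8 hours of MG132 stress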
T2 sequence (P38532 whole entry): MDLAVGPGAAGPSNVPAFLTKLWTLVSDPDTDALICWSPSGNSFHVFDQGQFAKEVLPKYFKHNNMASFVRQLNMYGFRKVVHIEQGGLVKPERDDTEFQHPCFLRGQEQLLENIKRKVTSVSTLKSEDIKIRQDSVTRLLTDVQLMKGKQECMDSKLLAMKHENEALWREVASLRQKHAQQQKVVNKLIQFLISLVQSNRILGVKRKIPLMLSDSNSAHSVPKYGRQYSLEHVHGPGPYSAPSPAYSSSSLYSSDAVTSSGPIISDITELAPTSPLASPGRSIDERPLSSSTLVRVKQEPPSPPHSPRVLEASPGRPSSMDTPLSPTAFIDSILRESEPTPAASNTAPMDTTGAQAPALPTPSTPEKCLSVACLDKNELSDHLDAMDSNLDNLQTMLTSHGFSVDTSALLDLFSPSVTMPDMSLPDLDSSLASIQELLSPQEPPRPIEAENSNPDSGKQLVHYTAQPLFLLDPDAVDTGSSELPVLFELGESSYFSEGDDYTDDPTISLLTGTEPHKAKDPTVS

[7] = test system: BJ; experiment: cells; assay type: functional, cell-based; conditions: Homo sapiens
[8] = test system: BJ; experiment: cytotoxicity toward BJ-TERT-LT-ST fibroblasts, dose response, cell-based, RAS-independent, luminescence (AID 1935); assay type: functional; conditions: Homo sapiens;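 further: BJ fibroblasts immortalized with TERT plus LT and ST oncogenes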
[9] = cytotoxicity toward DRD oncogenic fibroblasts, dose response, cell-based, non-viral oncogenic, luminescence (AID 1934); assay type: functional; conditions: Homo sapiens
[10] = molecular target: T3, Bcl-2-related protein A1 (Mus musculus, UniProt Q07440); assay type: functional;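 further: confirmatory dose–response counterscreen on Bfl-1, used to check hits from a UBC13 polyubiquitin inhibitor campaign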
T3 sequence (Q07440 whole entry): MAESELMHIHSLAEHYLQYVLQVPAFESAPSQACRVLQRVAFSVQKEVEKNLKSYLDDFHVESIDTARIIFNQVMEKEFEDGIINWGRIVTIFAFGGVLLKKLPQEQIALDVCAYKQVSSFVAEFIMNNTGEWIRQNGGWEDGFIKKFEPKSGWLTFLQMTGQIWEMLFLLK

[11] = molecular target: T4, Ubiquitin-conjugating enzyme E2 N (Homo sapiens, UniProt P61088); assay type: functional
T4 sequence (P61088 whole entry): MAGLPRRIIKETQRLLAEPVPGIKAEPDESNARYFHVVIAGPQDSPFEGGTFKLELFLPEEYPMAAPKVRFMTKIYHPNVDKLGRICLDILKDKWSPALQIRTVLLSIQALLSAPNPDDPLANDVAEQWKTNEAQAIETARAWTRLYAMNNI

[12] = molecular target: T4, Ubiquitin-conjugating enzyme E2 N; assay type: functional; remark: listed apart in the source
[13] = molecular target: T5, Type-1 angiotensin II receptor (Homo sapiens, UniProt P30556); experiment: AT1 receptor agonists, dose response, selectivity assay for APJ receptor agonist project, cell-based, uHTS hits (AID 488865); assay type: functional;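 further: beta-arrestin recruitment to AT1 measured by enzyme fragment complementation luminescence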
T5 sequence (P30556 whole entry): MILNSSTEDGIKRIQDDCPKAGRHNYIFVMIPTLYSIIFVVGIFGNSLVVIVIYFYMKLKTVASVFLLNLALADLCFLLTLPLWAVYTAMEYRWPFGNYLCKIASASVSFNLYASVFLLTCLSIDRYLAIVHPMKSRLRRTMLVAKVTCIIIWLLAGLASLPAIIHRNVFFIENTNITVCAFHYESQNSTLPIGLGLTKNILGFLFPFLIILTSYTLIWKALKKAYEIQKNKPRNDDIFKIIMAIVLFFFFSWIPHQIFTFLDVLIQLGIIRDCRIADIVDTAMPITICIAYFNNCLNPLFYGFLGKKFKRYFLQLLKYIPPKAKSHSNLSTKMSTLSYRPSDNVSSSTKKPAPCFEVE

[14] = test system: BJ; experiment: cytotoxicity toward Ras-transformed BJeLR fibroblasts, dose response, cell-based, alamar blue fluorescence, cherrypicked samples (AID 2631); assay type: functional; conditions: Homo sapiens;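 further: confirmatory dose-response assay in RAS-dependent BJ fibroblasts engineered with TERT, LT and ST, with cytotoxicity read by fluorescence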
[15] = test system: INS1; experiment: beta cell apoptosis inhibitors, cytokine rescue, dose response, luminescence, retest (AID 449756); assay type: functional, cell-based; conditions: Rattus norvegicus;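 further: cell death triggered by IL-1 beta plus TNF-alpha plus IFN-gamma mixture; protective hits raise ATP signal compared with cytokine alone wells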
[16] = test system: J774.A1; experiment: Confirmation of image-based Screening Assay for Inhibitors of Phagocytosis. [Related pubchem assays (depositor defined):AID1029, AID1643]; assay type: functional, cell-based; conditions: Mus musculus
[17] = cytotoxicity in HEK-293T cells, dose response, cytotoxicity control for TCR NF-kB inhibitor project, luminescence, T-cell screen hits (AID 489026); assay type: functional, cell-based;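 further: cells exposed to compound about 14 hours before the viability readout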
[18] = Vero cell cytotoxicity, dose response, cytotoxicity control for Vif-APOBEC3G degradation inhibitor project, Vero cells (AID 1117358); assay type: functional; conditions: Human immunodeficiency virus 1, Vero
[19] = molecular target: T6, RNA-binding protein pos-1 (Caenorhabditis elegans, UniProt G5EF15); experiment: inhibitors of POS-1/mex-3 RNA binding, dose response, biochemical, fluorescence polarization (AID 1964);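 further: purified POS-1 fused to maltose binding protein made in E. coli; potency of compounds blocking POS-1 binding to fluorescent RNA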
T6 sequence (G5EF15 whole entry): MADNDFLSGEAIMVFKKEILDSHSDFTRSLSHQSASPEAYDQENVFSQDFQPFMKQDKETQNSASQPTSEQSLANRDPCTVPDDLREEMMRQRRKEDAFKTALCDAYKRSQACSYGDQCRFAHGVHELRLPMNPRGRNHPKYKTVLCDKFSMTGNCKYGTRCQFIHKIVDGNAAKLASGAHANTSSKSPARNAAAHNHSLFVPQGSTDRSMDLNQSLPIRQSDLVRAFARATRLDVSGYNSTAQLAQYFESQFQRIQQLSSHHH

[20] = molecular target: T7, Zinc finger protein mex-5 (Caenorhabditis elegans, UniProt Q9XUB2); experiment: MEX-5/TCR-2 RNA interaction inhibitors, dose response, biochemical, C. elegans, fluorescence polarization (AID 1960)
T7 sequence (Q9XUB2 whole entry): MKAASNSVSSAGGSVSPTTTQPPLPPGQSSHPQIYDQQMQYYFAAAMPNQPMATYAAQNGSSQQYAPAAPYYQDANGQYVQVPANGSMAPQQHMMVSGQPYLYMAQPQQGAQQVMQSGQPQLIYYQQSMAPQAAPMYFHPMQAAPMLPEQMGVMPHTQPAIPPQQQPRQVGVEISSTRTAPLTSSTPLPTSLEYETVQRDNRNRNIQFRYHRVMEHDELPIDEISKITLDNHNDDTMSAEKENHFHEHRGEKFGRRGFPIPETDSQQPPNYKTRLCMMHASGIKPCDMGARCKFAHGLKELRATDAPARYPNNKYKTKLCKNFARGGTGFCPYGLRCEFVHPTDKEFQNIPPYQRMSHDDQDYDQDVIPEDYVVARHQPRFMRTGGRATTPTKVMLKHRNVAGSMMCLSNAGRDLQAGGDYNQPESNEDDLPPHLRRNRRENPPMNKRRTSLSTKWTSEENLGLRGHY

[21] = molecular target: Troponin, cardiac muscle (Homo sapiens, UniProt P19429+P45379+P63316); experiment: inhibitors of cardiac thin filament calcium sensitivity, dose response, biochemical, fluorescence, cardiac regulated thin filaments, triplicate IC50 (AID 504742); assay type: protein-complex assay
[22] = molecular target: Tyrosyl-DNA phosphodiesterase 2 (Homo sapiens, UniProt O95551); experiment: human TDP2 enzyme inhibitors, dose response, biochemical, epi absorbance, IC50 (AID 743297)
[23] = molecular target: Disintegrin and metalloproteinase domain-containing protein 17 (Homo sapiens, UniProt P78536); experiment: exosite inhibitors of ADAM17, dose response, biochemical (AID 743260)
[24] = molecular target: 1-phosphatidylinositol 4,5-bisphosphate phosphodiesterase gamma-1 (Homo sapiens, UniProt P19174); experiment: Counterscreen for inhibitors of phospholipase C isozymes (PLC-B3): Fluorescence-based biochemical high throughput dose response assay to identify inhibitors of phospholipase C isozymes (PLC-gamma1).
[25] = molecular target: 1-phosphatidylinositol 4,5-bisphosphate phosphodiesterase beta-3 (Homo sapiens, UniProt Q01970); experiment: Fluorescence-based biochemical high throughput dose response assay to identify inhibitors of phospholipase C isozymes (PLC-B3).
[26] = ADAM10 protease inhibitors, dose response, selectivity assay for ADAM17 exosite inhibitor project, biochemical, FRET peptide substrate, recombinant human ADAM10 (AID 743259);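 further: ADAM10 enzyme cleaving a FRET peptide substrate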

Sequence of Tyrosyl-DNA phosphodiesterase 2 (O95551 whole entry, the tested form may be a part): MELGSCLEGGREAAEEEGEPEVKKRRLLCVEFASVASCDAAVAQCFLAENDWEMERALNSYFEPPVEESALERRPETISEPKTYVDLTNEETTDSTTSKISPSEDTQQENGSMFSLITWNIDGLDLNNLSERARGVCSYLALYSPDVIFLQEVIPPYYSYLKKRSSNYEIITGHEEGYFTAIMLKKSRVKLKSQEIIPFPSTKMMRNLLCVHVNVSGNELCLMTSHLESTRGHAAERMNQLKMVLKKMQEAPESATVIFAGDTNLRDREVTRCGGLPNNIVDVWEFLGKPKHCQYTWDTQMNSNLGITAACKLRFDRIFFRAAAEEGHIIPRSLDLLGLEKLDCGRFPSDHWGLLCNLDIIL
Sequence of NADPH oxidase 3 (Q9HBY0 whole entry): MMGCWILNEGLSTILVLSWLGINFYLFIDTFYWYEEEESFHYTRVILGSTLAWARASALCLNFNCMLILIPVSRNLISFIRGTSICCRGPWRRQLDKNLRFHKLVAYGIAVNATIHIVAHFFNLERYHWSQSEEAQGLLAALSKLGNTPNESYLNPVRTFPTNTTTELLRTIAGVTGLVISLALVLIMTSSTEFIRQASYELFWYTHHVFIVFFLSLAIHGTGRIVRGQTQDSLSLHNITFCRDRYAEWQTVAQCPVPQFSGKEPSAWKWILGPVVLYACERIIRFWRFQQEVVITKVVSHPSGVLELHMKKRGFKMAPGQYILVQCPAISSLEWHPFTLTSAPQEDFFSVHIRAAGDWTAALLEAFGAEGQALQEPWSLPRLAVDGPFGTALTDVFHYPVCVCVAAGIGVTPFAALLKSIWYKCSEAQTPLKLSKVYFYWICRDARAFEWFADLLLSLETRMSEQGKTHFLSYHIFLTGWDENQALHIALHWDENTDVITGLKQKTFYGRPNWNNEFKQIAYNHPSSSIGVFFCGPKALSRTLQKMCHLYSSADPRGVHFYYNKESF
Sequence of NADPH oxidase 2 (P04839 whole entry): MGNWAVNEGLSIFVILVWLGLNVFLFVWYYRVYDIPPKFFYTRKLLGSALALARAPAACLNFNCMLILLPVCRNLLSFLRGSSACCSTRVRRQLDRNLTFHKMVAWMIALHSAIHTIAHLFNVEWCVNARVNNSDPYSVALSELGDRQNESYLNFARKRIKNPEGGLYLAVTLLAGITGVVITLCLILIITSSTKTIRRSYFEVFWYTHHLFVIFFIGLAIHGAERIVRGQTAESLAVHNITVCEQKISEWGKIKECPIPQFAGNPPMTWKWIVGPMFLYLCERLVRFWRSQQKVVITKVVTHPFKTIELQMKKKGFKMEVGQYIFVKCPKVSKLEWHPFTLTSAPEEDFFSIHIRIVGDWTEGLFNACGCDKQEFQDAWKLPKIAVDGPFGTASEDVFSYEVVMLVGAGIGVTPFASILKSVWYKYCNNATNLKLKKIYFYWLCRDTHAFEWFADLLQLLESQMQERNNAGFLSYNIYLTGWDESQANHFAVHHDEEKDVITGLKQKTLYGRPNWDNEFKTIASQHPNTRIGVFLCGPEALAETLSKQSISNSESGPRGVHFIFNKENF
Sequence of 1-phosphatidylinositol 4,5-bisphosphate phosphodiesterase gamma-1 (P19174 whole entry): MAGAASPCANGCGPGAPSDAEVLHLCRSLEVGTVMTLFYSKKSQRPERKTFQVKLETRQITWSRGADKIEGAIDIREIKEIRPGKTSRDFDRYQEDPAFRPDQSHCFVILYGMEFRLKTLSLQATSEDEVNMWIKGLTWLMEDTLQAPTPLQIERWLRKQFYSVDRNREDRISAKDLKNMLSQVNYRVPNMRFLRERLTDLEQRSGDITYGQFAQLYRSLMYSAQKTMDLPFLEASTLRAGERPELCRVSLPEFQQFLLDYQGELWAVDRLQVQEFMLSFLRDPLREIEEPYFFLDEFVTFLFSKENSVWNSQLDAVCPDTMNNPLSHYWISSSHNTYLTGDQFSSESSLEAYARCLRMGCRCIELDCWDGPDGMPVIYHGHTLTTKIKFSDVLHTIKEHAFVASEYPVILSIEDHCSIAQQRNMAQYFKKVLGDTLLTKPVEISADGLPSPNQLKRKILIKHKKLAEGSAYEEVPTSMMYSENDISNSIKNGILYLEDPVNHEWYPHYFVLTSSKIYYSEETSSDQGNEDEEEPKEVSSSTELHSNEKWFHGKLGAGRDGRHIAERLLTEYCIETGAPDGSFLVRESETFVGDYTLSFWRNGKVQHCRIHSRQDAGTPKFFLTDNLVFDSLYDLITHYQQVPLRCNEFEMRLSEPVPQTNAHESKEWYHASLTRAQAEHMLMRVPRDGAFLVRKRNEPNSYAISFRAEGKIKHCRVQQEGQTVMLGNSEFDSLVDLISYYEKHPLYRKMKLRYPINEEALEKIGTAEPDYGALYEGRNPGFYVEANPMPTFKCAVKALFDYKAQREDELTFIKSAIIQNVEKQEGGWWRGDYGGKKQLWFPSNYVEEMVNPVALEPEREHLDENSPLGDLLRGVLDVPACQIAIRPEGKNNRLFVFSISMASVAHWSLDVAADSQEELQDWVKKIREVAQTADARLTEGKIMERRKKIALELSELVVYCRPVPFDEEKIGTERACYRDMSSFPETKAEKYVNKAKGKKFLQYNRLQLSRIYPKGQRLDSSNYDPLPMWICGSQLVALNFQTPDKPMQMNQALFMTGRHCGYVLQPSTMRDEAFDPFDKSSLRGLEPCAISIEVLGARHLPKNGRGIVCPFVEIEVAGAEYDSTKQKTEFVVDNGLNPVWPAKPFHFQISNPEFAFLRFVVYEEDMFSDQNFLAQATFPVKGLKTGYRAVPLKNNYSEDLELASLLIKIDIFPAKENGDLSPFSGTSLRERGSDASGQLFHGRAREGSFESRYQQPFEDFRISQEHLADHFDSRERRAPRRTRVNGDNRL
Sequence of Disintegrin and metalloproteinase domain-containing protein 17 (P78536 whole entry, the tested form may be a part): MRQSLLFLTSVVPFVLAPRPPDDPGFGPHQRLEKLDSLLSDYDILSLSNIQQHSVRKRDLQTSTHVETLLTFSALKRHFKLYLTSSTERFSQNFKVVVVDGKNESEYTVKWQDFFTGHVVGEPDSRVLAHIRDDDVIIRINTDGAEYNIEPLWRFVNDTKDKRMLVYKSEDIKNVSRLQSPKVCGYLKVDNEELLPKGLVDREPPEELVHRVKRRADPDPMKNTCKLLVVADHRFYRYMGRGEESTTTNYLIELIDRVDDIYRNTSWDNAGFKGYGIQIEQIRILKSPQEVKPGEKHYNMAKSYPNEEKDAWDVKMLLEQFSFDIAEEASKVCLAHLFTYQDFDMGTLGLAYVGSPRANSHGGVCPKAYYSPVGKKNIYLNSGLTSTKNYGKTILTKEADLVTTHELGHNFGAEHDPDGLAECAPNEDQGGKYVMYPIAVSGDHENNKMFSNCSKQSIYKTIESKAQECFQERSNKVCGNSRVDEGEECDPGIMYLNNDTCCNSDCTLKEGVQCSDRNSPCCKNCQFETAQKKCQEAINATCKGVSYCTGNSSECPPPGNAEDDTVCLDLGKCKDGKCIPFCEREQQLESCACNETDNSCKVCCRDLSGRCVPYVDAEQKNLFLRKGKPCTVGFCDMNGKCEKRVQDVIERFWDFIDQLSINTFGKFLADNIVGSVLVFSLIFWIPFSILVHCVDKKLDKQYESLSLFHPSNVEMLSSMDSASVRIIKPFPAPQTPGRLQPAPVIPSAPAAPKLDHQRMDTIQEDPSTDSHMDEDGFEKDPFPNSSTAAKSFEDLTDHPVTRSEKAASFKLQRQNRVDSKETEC
Sequence of 1-phosphatidylinositol 4,5-bisphosphate phosphodiesterase beta-3 (Q01970 whole entry): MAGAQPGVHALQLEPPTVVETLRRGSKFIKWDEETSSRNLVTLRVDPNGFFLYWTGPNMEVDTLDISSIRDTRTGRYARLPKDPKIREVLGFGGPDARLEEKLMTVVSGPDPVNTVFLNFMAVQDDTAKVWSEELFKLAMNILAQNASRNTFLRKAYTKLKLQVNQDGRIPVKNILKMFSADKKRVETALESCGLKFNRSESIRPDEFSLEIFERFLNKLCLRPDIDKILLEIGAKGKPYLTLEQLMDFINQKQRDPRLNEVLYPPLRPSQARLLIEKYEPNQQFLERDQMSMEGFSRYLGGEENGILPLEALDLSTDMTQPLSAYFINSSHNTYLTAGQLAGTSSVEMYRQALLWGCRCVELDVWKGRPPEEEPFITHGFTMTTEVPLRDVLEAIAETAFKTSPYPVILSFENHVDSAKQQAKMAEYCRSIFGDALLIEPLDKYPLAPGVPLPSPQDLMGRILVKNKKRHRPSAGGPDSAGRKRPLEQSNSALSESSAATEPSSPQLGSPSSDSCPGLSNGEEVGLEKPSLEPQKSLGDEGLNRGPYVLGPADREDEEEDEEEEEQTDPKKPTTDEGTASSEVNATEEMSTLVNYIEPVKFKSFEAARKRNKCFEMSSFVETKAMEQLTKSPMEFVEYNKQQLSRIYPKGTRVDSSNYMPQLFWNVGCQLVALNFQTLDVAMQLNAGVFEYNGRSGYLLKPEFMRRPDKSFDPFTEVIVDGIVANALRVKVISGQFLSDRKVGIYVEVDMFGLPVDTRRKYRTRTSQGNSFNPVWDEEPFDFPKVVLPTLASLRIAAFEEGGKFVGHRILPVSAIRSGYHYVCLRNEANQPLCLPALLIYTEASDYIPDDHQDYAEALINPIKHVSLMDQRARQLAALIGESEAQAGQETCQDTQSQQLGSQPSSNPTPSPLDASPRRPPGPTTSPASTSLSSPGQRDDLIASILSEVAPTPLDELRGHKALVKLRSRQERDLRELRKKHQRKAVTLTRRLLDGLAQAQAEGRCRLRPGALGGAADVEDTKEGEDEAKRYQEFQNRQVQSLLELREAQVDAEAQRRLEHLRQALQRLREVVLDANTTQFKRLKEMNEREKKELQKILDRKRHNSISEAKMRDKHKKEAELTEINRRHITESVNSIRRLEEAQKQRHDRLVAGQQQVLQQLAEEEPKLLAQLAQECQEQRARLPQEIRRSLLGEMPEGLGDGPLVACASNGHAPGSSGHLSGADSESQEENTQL

## Oc1c(Br)cc(/C=N/Nc2c(Cl)cncc2Cl)cc1Br
[1]
  IC50: 0.43 µM (active)
[2]
  IC50: 10 µM (active)
[3]
  IC50: > 50 µM (inactive)
[4]
  IC50: > 50 µM (inactive)

## COc1ccc(OC)c2sc(N(CCCN(C)C)C(=O)c3ccc(S(=O)(=O)N4CCc5ccccc5C4)cc3)nc12
[5]
  EC50: 0.357 µM (inconclusive)
[6]
  EC50: 5.01 µM (active)
[7]
  EC50: 2.43 µM (active)
[8]
  EC50: 0.432 µM (inconclusive)
[9]
  EC50: 1.27 µM (inconclusive)
[10]
  IC50: 8.51 µM (active)
[11]
  IC50: 2.47 µM (active)
[12]
  IC50: 1.27 µM (active)
[13]
  EC50: > 100 µM (inactive)
[14]
  EC50: 0.289 µM (active)
[15]
  AC50: 1.75 µM (active)

## COc1ccc(C2=NOC(C(=O)NCc3cccs3)C2)cc1OC (stereo unspecified)
[16]
  IC50: 0.609 µM (active)
[17]
  IC50: > 80 µM (inactive)
[18]
  CC50: > 40 µM (active)

## O=C(O)c1cc(O)c2c(c1)[C@H]([C@H]1c3cc(C(=O)O)cc(O)c3C(=O)c3c(O[C@@H]4O[C@H](CO)[C@@H](O)[C@H](O)[C@H]4O)cccc31)c1cccc(OC3O[C@H](CO)[C@@H](O)[C@H](O)[C@H]3O)c1C2=O (stereo partly specified)
[19]
  EC50: > 300 µM (not active)
[20]
  EC50: 7.25 µM (active)
[21]
  IC50: 2.72 µM (active)
[22]
  IC50: > 128 µM (inactive)
[23]
  IC50: 30.4 µM (inactive)
[24]
  IC50: 18.8 µM (inactive)
[25]
  IC50: 109 µM (inactive)
[26]
  IC50: > 23.2 µM (inactive)
